“And” between values parts separate entries of the source, which are not always exact repeats. Equal values may be shown once. Read-outs that look alike come from different tables or passages of the source.
How the values were obtained:
Type in all cases: in vivo, rat
[1] = test system: amygdala kindling development in rats; experiment: Development/establishment of amygdala kindling under daily dosing
Description: The present inventors have studied the effects of nefiracetam on an development process of the amygdaloid kindled seizures and on establishment of kindling through a method described below, and have determined the efficacy of nefiracetam. The evolution process of kindling is tested by use of rats, in which electrodes are placed in the amygdala and kindling stimulation (50 Hz sine wave, duration of 1 second, once per day) is applied at specific intervals for restoration. On the first day, an afterdischarge-provocation threshold is determined without administration of a pharmaceutical. From the second day, kindling stimulation having intensity of the afterdischarge-provocative threshold is applied to rats administered with a specimen at a variety of administration doses, to thereby investigate an effect of the specimen on the evolution process of kindling.
In this test, the following parameters were evaluated: seizure stage in the process of development of amygdala kindling and afterdischarge duration at the stimulated amygdala.
[Method] Male Wistar rats (5 to 6 weeks old, weight: 200-250 g, Tokyo Jikken Dobutsu) were used. For each rat, in a manner similar to that in Example 1, there were performed anesthetization, setting of an electrode on the amygdala, and fixation of the electrode at the cranial bone. After a recovery period of at least two weeks, kindling stimulation was initiated.
Kindling stimulation was performed for one second per day with a sine wave of 50 Hz. On the first day, the afterdischarge threshold was determined, and from the second day, kindling stimulation was performed at the intensity of the threshold. On the first day, nefiracetam was not administered, in order to determine the threshold. For twenty days from the second day, a dose of nefiracetam (45, 90, or 180 mg/kg) was administered orally, and then kindling stimulation was performed 90 minutes after administration. After nefiracetam was administered for twenty days, kindling stimulation was performed without administration for an additional seven days.

[2] = test system: kainate-induced amygdala seizures; for Spikes from the amygdala after 24 h: key: (+): effective; (−): ineffective; for Spikes from the amygdala after 48 h: key: (+): effective; (−): ineffective; for Spikes from the amygdala after 72 h: key: (+): effective; (−): ineffective; for Spikes from the amygdala just after intravenous injection: key: (+): effective; (−): ineffective
Description: [Method for measuring an electrophysiological effect] The following operation was performed by use of 19 Wistar male rats (Japan SLC Co.) each having a weight of 250-350 g. Each rat was anesthetized by pentobarbital and fixed in a stereotaxic apparatus. […] Subsequently, a bipolar depth electrode having a diameter of 0.2 mm were inserted into bilateral amygdala (A, +5.0; L, +−5.0; D, −3.0) and hippocampus (A, +3.0; L, +−3.2; D, +1.5). Screw electrodes were set at the left sensorimotor area (A, +1.0 (from bregam); L, +−2.5; D, 0.5 (from dura)), frontal sinus, and occipital median. The electrodes were connected to sockets, and the cannula, the electrodes, and the sockets were fixed on the cranium by use of dental cement. Seven days after operation, 1 μL of a solution of kainic acid dissolved in phosphoric acid buffer (1 mg/ml) was injected through the cannula (rate: […]) (n=12), so as to induce limbic system seizures. The electrodes were connected to an electroencephalograph, and the behavior of the rat in a cage was observed. An electroencephalogram was recorded by use of the electrode at the frontal sinus serving as an indifferent electrode and the electrode at the occipital median serving as ground. The behavior and electroencephalogram were simultaneously recorded by use of a video electroencephalogram recorder based on an electroencephalograph (SYNAFIT 1000; NEC San-ei Instruments, LTD.).
One to two hours after the injection of kainic acid, when a limbic system seizure was in status epilepticus, nefiracetam dissolved in saline (10 mg/mL) was slowly injected into a caudal vein in an amount selected from 10, 50, 100, and 200 mg/kg (n=12). The same amount of saline was injected into a vein of rats of the control group (n=7). Subsequently, behavior and electroencephalograms of the rat were continuously recorded for at least eight hours, followed by two-hour recording after 24 hours, 48 hours, and 72 hours. Changes in clinical seizure and electroencephalogram observations just after the injection of the nefiracetam solution or saline, and occurrence of seizures and electroencephalogram observations after 24, 48, and 72 hours were measured, and the results were evaluated on the basis of the comparison.

[3] = test system: kainate-induced cortical focal seizures; experiment: Local cerebral glucose metabolism during kainate-induced cortical focal seizures; parameters: key to Change in local cerebral glucose metabolism rate: →: no change; →↓: decreased in a low degree; ↓: decreased in a moderate degree; ↓↓: decreased in a high degree; settings: for Change in local cerebral glucose metabolism rate: 100 mg/kg i.v.
Description: [Method] A cannula was set in the left sensorimotor area of rats, and kinic acid was injected so as to induce seizures through the same manner as described in the experiment of I-1. Subsequently, a nefiracetam solution (100 mg/kg) was intravenously injected into each rat. After 60 minutes, [^14C] deoxyglucose was intravenously injected, and autoradiograms were produced through the same procedure as described in the experiment of I-2. A glucose utilization rate of each intracerabral structure was compared with that of the control group.

[4] = Test 1, 90 mg/kg p.o. daily for twenty days
[5] = Test 2, 45 mg/kg p.o. daily for twenty days
[6] = Test 2, 180 mg/kg p.o. daily for twenty days
[7] = 10 mg/kg i.v., EEG, individual rat
[8] = 50 mg/kg i.v., EEG, individual rat
[9] = 100 mg/kg i.v., EEG, individual rats
[10] = 200 mg/kg i.v., EEG, individual rats
[11] = 200 mg/kg i.v., individual rats

With `Cc1cccc(C)c1NC(=O)CN1CCCC1=O` [nefiracetam, N-(2,6-dimethylphenyl)-2-(2-oxo-1-pyrrolidinyl)acetamide] as the compound, how does the “Day on which stage 5 was reached” value ([1]; 90 mg/kg, typical rat (control: ninth day)) read?
The value was “tenth day”.

And the “Day on which seizure stage began to progress” value ([1]; 90 mg/kg, typical rat (control: third day))?
The value was “sixth day”.

What about the “Number of stimulations until the completion of stage 5 versus control rats” value ([1]; 45, 90 or 180 mg/kg p.o. daily) of the same compound?
The value was “no difference was observed”.

What about the “Number of samples showing an increase in afterdischarge threshold/total samples” value [1, 4] of the same compound?
The value was 3/6.

What about the “Number of samples showing stage 5 intermittently/total samples” value [1, 4] of the same compound?
Its value is 4/6.

And the “Number of samples showing an increase in afterdischarge threshold/total samples” value [1, 5]?
The value was 0/4.

What about the “Number of samples showing stage 5 intermittently/total samples” value [1, 5] of the same compound?
The value was 0/4.

And the “Number of samples showing an increase in afterdischarge threshold/total samples” value [1, 6]?
Its value is 2/6.

What about the “Number of samples showing stage 5 intermittently/total samples” value [1, 6] of the same compound?
The value was 5/6.

And the “Stimulation intensity at which afterdischarge was shown” value ([1]; one nefiracetam-administered rat, eleventh day)?
Its value is 150 μA.

And the Seizure stage ([1]; one nefiracetam-administered rat, eleventh day, 150 μA)?
Its Seizure stage is 4.

What about the “Disappearance of seizures intravenous injection” value ([2]; 10 mg/kg i.v. during status epilepticus, individual rat) of the same compound?
The value was “−”.

What about the “Spikes from the amygdala after 24 h” value [2, 7] of the same compound?
The value was “+”.

And the “Spikes from the amygdala just after intravenous injection” value (“Spikes from the amygdala just” for short) [2, 7]?
The value was “+”.

What about the Sedative action ([2]; 10 mg/kg i.v., individual rat) of the same compound?
The Sedative action was “−”.

And the “Disappearance of seizures intravenous injection” value ([2]; 50 mg/kg i.v. during status epilepticus, individual rat)?
Its value is “−”.

And the “Spikes from the amygdala after 24 h” value [2, 8]?
Its value is “+”.

What about the “Spikes from the amygdala just” value [2, 8] of the same compound?
The value was “+”.

What about the Sedative action ([2]; 50 mg/kg i.v., individual rat) of the same compound?
Its Sedative action is “−”.

And the “Duration of sedative action after injection” value ([2]; 100 mg/kg i.v.)?
The value was 30 to 60 min.

And the “Disappearance of seizures intravenous injection” value ([2]; 100 mg/kg i.v. during status epilepticus, individual rats)?
The value was “−”.

And the “Spikes from the amygdala after 24 h” value [2, 9]?
The value was “+”.

And the “Spikes from the amygdala just” value [2, 9]?
The value was “+”.

What about the Sedative action ([2]; 100 mg/kg i.v., individual rats) of the same compound?
Its Sedative action is “+”.

What about the “Duration of sedation from just after the injection” value ([2]; 200 mg/kg and 100 mg/kg i.v., approximately) of the same compound?
Its value is 60 to 90 min.

What about the “Rats in which seizures were not suppressed (behavior and electroencephalogram)” value ([2]; 200 mg/kg i.v.) of the same compound?
The value was 3 out of the 8.

What about the “Disappearance of seizures intravenous injection” value ([2]; 200 mg/kg i.v. during status epilepticus, individual rats) of the same compound?
The value was “+ (5×) and − (3×)”.

What about the “Spikes from the amygdala after 24 h” value [2, 10] of the same compound?
Its value is “− (3×) and + (4×)”.

What about the “Spikes from the amygdala after 48 h” value [2, 10] of the same compound?
The value was “− (3×) and + (3×)”.

What about the “Spikes from the amygdala after 72 h” value [2, 10] of the same compound?
The value was “− (3×) and + (3×)”.

And the “Spikes from the amygdala just” value [2, 10]?
Its value is “− (4×) and + (4×)”.

What about the “Rats in which spikes corresponding to the amygdala disappeared from electroencephalogram” value ([2]; 200 mg/kg i.v., among the 5 rats whose seizures disappeared) of the same compound?
Its value is 4 out of the 5.

And the “Disappearance period of seizures after intravenous injection” value [2, 11]?
Its value is 5 min and 35 min.

And the Sedative action [2, 11]?
Its Sedative action is “+”.

What about the “Death after intravenous injection (time)” value ([2]; 200 mg/kg i.v., rat N5) of the same compound?
Its value is 25 min.

And the “Rats in which seizures disappeared after injection” value ([2]; 200 mg/kg i.v., seizures later reappeared)?
The value was 5 out of 8.

And the “Changes in paroxysmal behavior or electroencephalograms” value ([2]; 10, 50, or 100 mg/kg i.v. during status epilepticus)?
The value was “no apparent changes”.

And the “Hypermetabolism in non-focal sensorimotor area, caudatum-putamen, thalamus and hippocampus in both sides” value ([3]; 100 mg/kg i.v. during seizures)?
The value was “hypermetabolism is suppressed remarkably”.

What about the “Change in local cerebral glucose metabolism rate” value ([3]; Amygdala, focal side) of the same compound?
The value was “→↓”.

What about the “Change in local cerebral glucose metabolism rate” value ([3]; Amygdala, non-focal side) of the same compound?
The value was “→↓”.

What about the “Change in local cerebral glucose metabolism rate” value ([3]; Brain stem reticular formation, focal side) of the same compound?
Its value is “→↓”.

What about the “Change in local cerebral glucose metabolism rate” value ([3]; Brain stem reticular formation, non-focal side) of the same compound?
The value was “→↓”.

And the “Change in local cerebral glucose metabolism rate” value ([3]; Candatum-putamen, focal side)?
The value was “↓”.

And the “Change in local cerebral glucose metabolism rate” value ([3]; Candatum-putamen, non-focal side)?
The value was “↓↓”.

What about the “Change in local cerebral glucose metabolism rate” value ([3]; Cerebellar cortex, focal side) of the same compound?
The value was “→”.

And the “Change in local cerebral glucose metabolism rate” value ([3]; Cerebellar cortex, non-focal side)?
The value was “→”.

And the “Change in local cerebral glucose metabolism rate” value ([3]; Corpus callosum, focal side)?
Its value is “→”.

And the “Change in local cerebral glucose metabolism rate” value ([3]; Corpus callosum, non-focal side)?
Its value is “→”.

And the “Change in local cerebral glucose metabolism rate” value ([3]; Frontal lobe cortex, focal side)?
Its value is “→↓”.

And the “Change in local cerebral glucose metabolism rate” value ([3]; Frontal lobe cortex, non-focal side)?
Its value is “↓”.

And the “Change in local cerebral glucose metabolism rate” value ([3]; Hypothalamaus, focal side)?
Its value is “↓”.

And the “Change in local cerebral glucose metabolism rate” value ([3]; Hypothalamaus, non-focal side)?
Its value is “↓”.

What about the “Change in local cerebral glucose metabolism rate” value ([3]; Occipital lobe cortex, focal side) of the same compound?
The value was “→↓”.

What about the “Change in local cerebral glucose metabolism rate” value ([3]; Occipital lobe cortex, non-focal side) of the same compound?
Its value is “↓”.

And the “Change in local cerebral glucose metabolism rate” value ([3]; Parietal lobe cortex, focal side)?
The value was “↓”.

What about the “Change in local cerebral glucose metabolism rate” value ([3]; Parietal lobe cortex, non-focal side) of the same compound?
The value was “↓↓”.

And the “Change in local cerebral glucose metabolism rate” value ([3]; Sensorimotor area cortex, focal side)?
The value was “→↓”.

What about the “Change in local cerebral glucose metabolism rate” value ([3]; Sensorimotor area cortex, non-focal side) of the same compound?
The value was “↓”.

And the “Change in local cerebral glucose metabolism rate” value ([3]; Septal area, focal side)?
Its value is “→↓”.

What about the “Change in local cerebral glucose metabolism rate” value ([3]; Septal area, non-focal side) of the same compound?
Its value is “→↓”.

And the “Change in local cerebral glucose metabolism rate” value ([3]; Substantia nigra, focal side)?
The value was “→↓”.

What about the “Change in local cerebral glucose metabolism rate” value ([3]; Substantia nigra, non-focal side) of the same compound?
The value was “→↓”.

What about the “Change in local cerebral glucose metabolism rate” value ([3]; Teniporal lobe cortex, focal side) of the same compound?
Its value is “→↓”.

And the “Change in local cerebral glucose metabolism rate” value ([3]; Teniporal lobe cortex, non-focal side)?
The value was “↓”.

What about the “Change in local cerebral glucose metabolism rate” value ([3]; Thalamus, focal side) of the same compound?
Its value is “→↓”.

What about the “Change in local cerebral glucose metabolism rate” value ([3]; Thalamus, non-focal side) of the same compound?
Its value is “↓”.

And the “Change in local cerebral glucose metabolism rate” value ([3]; hippocampus, focal side)?
Its value is “↓↓”.

And the “Change in local cerebral glucose metabolism rate” value ([3]; hippocampus, non-focal side)?
Its value is “↓↓”.

Reference: patent publication US6365621B1, “Remedies or preventives for intractable epilepsy” (Pharmaceutical Co., Ltd., priority 1998, dated 2002)
